Reference: publication PMC9306553 (Angewandte Chemie (International Ed. in English), 2022)

B1: CCL25: orthosteric CCR9 agonist (protein, UniProt O15444 24-150, looked up)
C-C motif chemokine 25: QGVFEDCCLAYHYPIGWAVLRRAWTYRIQEVSGSCNLPAAIFYLPKRHRKVCGNPKSREVQRAMKLLDARNKVFAKLHHNTQTFQAGPHAVKKLSSGNSKLSSSKFSNPISSSKRNVSLLISANSGL

Columns and labels:
CCR9 [1] = molecular target: T1, CCR9 (Homo sapiens, UniProt P51686); experiment: cell-based; assay type: cell-based; conditions: for IC50: IC50 β-arrestin2 recruitment, HEK293T cells, stimulated with CCL25 31.6 nM
T1 sequence (P51686 1-369): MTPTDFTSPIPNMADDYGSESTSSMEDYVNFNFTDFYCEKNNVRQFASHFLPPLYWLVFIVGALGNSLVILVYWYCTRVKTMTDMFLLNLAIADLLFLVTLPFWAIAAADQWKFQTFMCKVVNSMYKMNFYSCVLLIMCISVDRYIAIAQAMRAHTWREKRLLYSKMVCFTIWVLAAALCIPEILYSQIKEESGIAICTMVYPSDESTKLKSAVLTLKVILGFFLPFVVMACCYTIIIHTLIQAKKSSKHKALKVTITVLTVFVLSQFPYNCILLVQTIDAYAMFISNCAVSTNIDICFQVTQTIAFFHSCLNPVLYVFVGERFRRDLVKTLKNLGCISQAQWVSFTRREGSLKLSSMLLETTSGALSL

CCR9 [2] = molecular target: T2, CCR9 (Homo sapiens, UniProt P51686); experiment: biochemical; assay type: binding; conditions: CCR9_Nluc membranes; for Ki: tracer 3a 100 nM
T2 sequence (P51686 1-357 isoform P51686-2): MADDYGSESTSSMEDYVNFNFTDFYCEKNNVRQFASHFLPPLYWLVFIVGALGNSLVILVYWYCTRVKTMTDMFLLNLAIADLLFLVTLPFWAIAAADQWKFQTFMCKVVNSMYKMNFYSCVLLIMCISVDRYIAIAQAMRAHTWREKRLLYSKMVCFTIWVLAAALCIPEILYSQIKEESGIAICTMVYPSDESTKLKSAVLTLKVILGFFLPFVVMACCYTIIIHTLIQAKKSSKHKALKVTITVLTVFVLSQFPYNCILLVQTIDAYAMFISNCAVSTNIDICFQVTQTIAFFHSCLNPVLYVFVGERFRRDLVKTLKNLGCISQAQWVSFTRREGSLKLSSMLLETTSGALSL

CCR9 [3] = molecular target: T2, CCR9; experiment: cell-based; conditions: tracer 3a 120 nM, live HEK293T cells expressing CCR9_Nluc
CCR9 [4] = molecular target: T2, CCR9; experiment: cell-based; conditions: HEK293T cells, stimulated with CCL25 31.6 nM
CCR2 = molecular target: T3, CCR2 (Homo sapiens, UniProt P41597); experiment: BRET-based G protein activation assay, CCR2; assay type: cell-based; conditions: stimulated with CCL2 10 nM
T3 sequence (P41597 1-360 isoform P41597-2): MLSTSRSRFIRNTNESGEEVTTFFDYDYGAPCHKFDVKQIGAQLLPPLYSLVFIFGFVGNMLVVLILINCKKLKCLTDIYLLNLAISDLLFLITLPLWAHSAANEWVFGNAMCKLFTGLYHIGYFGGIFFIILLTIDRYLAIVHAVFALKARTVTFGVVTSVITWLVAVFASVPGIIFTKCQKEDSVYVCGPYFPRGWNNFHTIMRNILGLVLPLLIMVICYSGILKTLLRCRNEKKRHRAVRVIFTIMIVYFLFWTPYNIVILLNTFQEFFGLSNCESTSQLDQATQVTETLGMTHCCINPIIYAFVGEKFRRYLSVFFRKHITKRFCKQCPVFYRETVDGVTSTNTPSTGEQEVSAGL

CCR9 [5] = molecular target: T2, CCR9; assay type: cell-based; conditions: for effect on the CCR9 degradation by 13 (ELISA): co-treatment with 13, HEK293T cells transiently expressing CCR9
[6] = pKi NanoBRET (membranes), mean±SEM
[7] = pKi NanoBRET (in cells), mean±SEM

Molecule | IC50 (CCR9 [1]) [nM] | Ki (CCR9 [2]; Ki NanoBRET (membranes)) [nM] | Ki (CCR9 [2]; [6]) [nM] | Ki (CCR9 [3]; Ki NanoBRET (in cells)) [nM] | Ki (CCR9 [3]; [7]) [nM] | IC50 (CCR9 [4]; IC50 Gαo activation) [nM] | IC50 (CCR9 [4]; pIC50 Gαo activation, mean±SEM) [nM] | effect on the CCR9 degradation by 13 (ELISA) (CCR9 [5]) | other results
CC(C)(C)c1ccc(S(=O)(=O)Nc2ccc(Cl)cc2-c2cccnc2N)cc1 [compound 11] | 166 | 13 | 12.3 | 20.5 | 19.1 | 256 | 257 | – | –
CC(C)(C)c1ccc(S(=O)(=O)Nc2ccc(Cl)cc2-c2cncnc2N)cc1 [compound 12] | – | – | – | – | – | – | – | – | increase in potency compared to 1, β-arrestin recruitment (CCR9 [1]; 12 versus 1): ≈ 10 fold; inhibition of CCR2 (G protein activation) (CCR2): no inhibition
Cc1ncsc1-c1ccc(CNC(=O)[C@@H]2C[C@@H](O)CN2C(=O)[C@@H](N)C(C)(C)C)cc1 [(S,R,S)‐AHPC] | – | – | – | – | – | – | – | can be counteracted | effect on CCR9 levels (ELISA) (CCR9 [5]; HEK293T cells transiently expressing CCR9, 14 h treatment): did not result in reduction of CCR9 levels
CC(C)(C)c1ccc(S(=O)(=O)Nc2ccc(Cl)cc2-c2nccnc2N)cc1 [compound 10] | 17.4 | 3.51 | 3.24 | 11.5 | 10.5 | 14.9 | 14.8 | – | –
NS(=O)(=O)OC[C@@H]1C[C@@H](n2ccc3c(N[C@H]4CCc5ccccc54)ncnc32)C[C@@H]1O [MLN4924] | – | – | – | – | – | – | – | can be reduced | –
B1 | – | – | – | – | – | – | – | – | effect on the binding of 3a to the IABS (CCR9 [2]; 3a 100 nM, prevented binding and displacement setup): did not affect the binding
